Tests used:
[1] = system: purple nutsedge; assay: Test B pre/postemergence purple nutsedge; assay type: in vivo, Cyperus rotundus
Procedure, shortened: (§1)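 Herbicidal effect was estimated by eye on a ten-point control scale after plants spent twelve to sixteen days in a greenhouse following soil or foliar treatment. Foliar sprays targeted plants at one to four leaves; all doses were formulated in a non-phytotoxic solvent with surfactant.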

[2] = system: giant foxtail; assay: Test B pre/postemergence giant foxtail; assay type: in vivo, Setaria faberii
Procedure, shortened: as §1

[3] = system: pigweed; assay: Test B pre/postemergence pigweed; assay type: in vivo, Amaranthus retroflexus
Procedure, shortened: as §1

[4] = system: rape; assay: Test B pre/postemergence rape; assay type: in vivo, Brassica napus
Procedure, shortened: as §1

[5] = system: cocklebur; assay: Test B pre/postemergence cocklebur; assay type: in vivo, Xanthium strumarium
Procedure, shortened: as §1

[6] = system: crabgrass; assay: Test B pre/postemergence crabgrass; assay type: in vivo, Digitaria sanguinalis
Procedure, shortened: as §1

[7] = system: duck salad; assay: Test B flood test duck salad; assay type: in vivo, Heteranthera limosa
Procedure, shortened: (§2)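 Flood test on plants grown to the 2-leaf stage; treated plants kept in greenhouse twelve to sixteen days, then visually rated against controls on a 0 (no effect) to 10 (complete control) scale.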

[8] = system: soybean; assay: Test B pre/postemergence soybean; assay type: in vivo, Glycine max
Procedure, shortened: as §1

[9] = system: sugar beet; assay: Test B pre/postemergence sugar beet; assay type: in vivo, Beta vulgaris
Procedure, shortened: as §1

[10] = system: wheat; assay: Test B pre/postemergence wheat; assay type: in vivo, Triticum aestivum
Procedure, shortened: as §1

[11] = system: corn; assay: Test B pre/postemergence corn; assay type: in vivo, Zea mays
Procedure, shortened: as §1

[12] = system: morningglory; assay: Test B pre/postemergence morningglory; assay type: in vivo, Ipomoea hederacea; details: for Plant response rating, Morningglory: scale of 0 to 10 where 0 is no effect and 10 is complete control
Procedure, shortened: as §1

[13] = system: rice; assay: Test B flood test rice; assay type: in vivo, Oryza sativa
Procedure, shortened: as §2

[14] = system: velvetleaf; assay: Test B pre/postemergence velvetleaf; assay type: in vivo, Abutilon theophrasti
Procedure, shortened: as §1

[15] = system: blackgrass; assay: Test B pre/postemergence blackgrass; assay type: in vivo, Alopecurus myosuroides
Procedure, shortened: as §1

[16] = system: smallflower flatsedge; assay: Test B flood test smallflower flatsedge; assay type: in vivo, Cyperus difformis
Procedure, shortened: as §2

[17] = Postemergence, Rate 250 g/ha, scale 0 to 10
[18] = Postemergence, Rate 500 g/ha, scale of 0 to 10 where 0 is no effect and 10 is complete control
[19] = Preemergence, Rate 62 g/ha, scale of 0 to 10 where 0 is no effect and 10 is complete control
[20] = Preemergence, Rate 125 g/ha, scale of 0 to 10 where 0 is no effect and 10 is complete control
[21] = Preemergence, Rate 250 g/ha, scale 0 to 10, 0 is no effect, 10 is complete control
[22] = Rate 62 g/ha, Postemergence, scale 0 to 10 (0 no effect, 10 complete control)
[23] = Rate 125 g/ha, Postemergence, scale 0 to 10, 0 is no effect, 10 is complete control
[24] = Preemergence, Rate 500 g/ha, scale 0 to 10, 0 is no effect, 10 is complete control
[25] = Postemergence block (flood test species), Rate 250 g/ha, scale 0 to 10
[26] = Postemergence section (flood test species), Rate 500 g/ha, scale of 0 to 10 where 0 is no effect and 10 is complete control
[27] = Rate 62 g/ha, Postemergence (flood test), scale 0 to 10, 0 no effect, 10 complete control
[28] = Rate 125 g/ha, Postemergence section (flood test species), scale 0 to 10, 0 is no effect, 10 is complete control

CC(C)N(C(=O)n1oc(=O)n(CC(=O)N(C)C)c1=O)c1ccc(F)cc1F [Compound 440]
Nutsedge plant response rating [1, 17]: 0 | Nutsedge plant response rating [1, 18]: 0 | Plant response rating, Nutsedge [1, 19]: 0 | Plant response rating, Nutsedge [1, 20]: 0 | Nutsedge plant response rating [1, 21]: 0 | Nutsedge plant response rating [1, 22]: 0 | Nutsedge plant response rating [1, 23]: 0 | Giant foxtail plant response rating [2, 17]: 9 | Giant foxtail plant response rating [2, 18]: 9 | Plant response rating, Giant foxtail [2, 19]: 6 | Plant response rating, Giant foxtail [2, 20]: 6 | Giant foxtail plant response rating [2, 21]: 10 | Giant foxtail plant response rating [2, 24]: 10 | Giant foxtail plant response rating [2, 22]: 0 | Giant foxtail plant response rating [2, 23]: 4 | Redroot pigweed plant response rating [3, 17]: 3 | Redroot pigweed plant response rating [3, 18]: 4 | Plant response rating, Redroot pigweed [3, 19]: 0 | Plant response rating, Redroot pigweed [3, 20]: 4 | Redroot pigweed plant response rating [3, 21]: 7 | Redroot pigweed plant response rating [3, 24]: 10 | Redroot pigweed plant response rating [3, 22]: 0 | Redroot pigweed plant response rating [3, 23]: 1 | Rape plant response rating [4, 17]: 0 | Rape plant response rating [4, 18]: 0 | Plant response rating, Rape [4, 19]: 0 | Plant response rating, Rape [4, 20]: 0 | Rape plant response rating [4, 21]: 3 | Rape plant response rating [4, 24]: 3 | Rape plant response rating [4, 22]: 0 | Rape plant response rating [4, 23]: 0 | Cocklebur plant response rating [5, 17]: 0 | Cocklebur plant response rating [5, 18]: 0 | Plant response rating, Cocklebur [5, 20]: 0 | Cocklebur plant response rating [5, 21]: 0 | Cocklebur plant response rating [5, 24]: 0 | Cocklebur plant response rating [5, 22]: 0 | Cocklebur plant response rating [5, 23]: 0 | Crabgrass plant response rating [6, 17]: 9 | Crabgrass plant response rating [6, 18]: 9 | Plant response rating, Crabgrass [6, 19]: 7 | Plant response rating, Crabgrass [6, 20]: 7 | Crabgrass plant response rating [6, 21]: 10 | Crabgrass plant response rating [6, 24]: 10 | Crabgrass plant response rating [6, 22]: 1 | Crabgrass plant response rating [6, 23]: 2 | Ducksalad plant response rating [7, 25]: 0 | Ducksalad plant response rating [7, 26]: 0 | Ducksalad plant response rating [7, 27]: 0 | Ducksalad plant response rating [7, 28]: 0 | Soybean plant response rating [8, 17]: 6 | Soybean plant response rating [8, 18]: 7 | Plant response rating, Soybean [8, 19]: 0 | Plant response rating, Soybean [8, 20]: 0 | Soybean plant response rating [8, 21]: 0 | Soybean plant response rating [8, 24]: 0 | Soybean plant response rating [8, 22]: 5 | Soybean plant response rating [8, 23]: 6 | Sugarbeets plant response rating [9, 17]: 0 | Sugarbeets plant response rating [9, 18]: 2 | Plant response rating, Sugarbeets [9, 19]: 0 | Plant response rating, Sugarbeets [9, 20]: 0 | Sugarbeets plant response rating [9, 21]: 4 | Sugarbeets plant response rating [9, 24]: 7 | Sugarbeets plant response rating [9, 22]: 0 | Sugarbeets plant response rating [9, 23]: 0 | Wheat plant response rating [10, 17]: 0 | Wheat plant response rating [10, 18]: 4 | Plant response rating, Wheat [10, 19]: 0 | Plant response rating, Wheat [10, 20]: 0 | Wheat plant response rating [10, 21]: 5 | Wheat plant response rating [10, 24]: 7 | Wheat plant response rating [10, 22]: 0 | Wheat plant response rating [10, 23]: 0 | Corn plant response rating [11, 17]: 0 | Corn plant response rating [11, 18]: 0 | Plant response rating, Corn [11, 19]: 0 | Plant response rating, Corn [11, 20]: 0 | Corn plant response rating [11, 21]: 0 | Corn plant response rating [11, 24]: 0 | Corn plant response rating [11, 22]: 0 | Corn plant response rating [11, 23]: 0 | Morningglory plant response rating [12, 17]: 8 | Plant response rating, Morningglory ([12]; Preemergence, Rate 62 g/ha): 0 | Plant response rating, Morningglory ([12]; Preemergence, Rate 125 g/ha): 0 | Morningglory plant response rating [12, 21]: 0 | Morningglory plant response rating [12, 24]: 0 | Morningglory plant response rating [12, 22]: 2 | Morningglory plant response rating [12, 23]: 8 | Rice plant response rating [13, 25]: 0 | Rice plant response rating [13, 26]: 0 | Rice plant response rating [13, 27]: 0 | Rice plant response rating [13, 28]: 0 | Velvetleaf plant response rating [14, 17]: 0 | Velvetleaf plant response rating [14, 18]: 2 | Plant response rating, Velvetleaf [14, 19]: 0 | Plant response rating, Velvetleaf [14, 20]: 0 | Velvetleaf plant response rating [14, 21]: 0 | Velvetleaf plant response rating [14, 24]: 7 | Velvetleaf plant response rating [14, 22]: 0 | Velvetleaf plant response rating [14, 23]: 0 | Blackgrass plant response rating [15, 17]: 4 | Blackgrass plant response rating [15, 18]: 8 | Plant response rating, Blackgrass [15, 19]: 2 | Plant response rating, Blackgrass [15, 20]: 6 | Blackgrass plant response rating [15, 21]: 10 | Blackgrass plant response rating [15, 24]: 10 | Blackgrass plant response rating [15, 22]: 0 | Blackgrass plant response rating [15, 23]: 0 | S. Flatsedge plant response rating [16, 25]: 0 | S. Flatsedge plant response rating [16, 26]: 0 | S. Flatsedge plant response rating [16, 27]: 0 | S. Flatsedge plant response rating [16, 28]: 0

— patent US6737383B1, “Herbicidal oxadiazolidines” (priority 1999, dated 2004)
